Laboratory results as given in patent US20060281806A1, “Treatment and inhibition of disease conditions using flexible heteroarotinoids” (priority 2005, published 2006).

What was measured:
ovarian cancer cells = assay: Microarray analysis of gene expression in SHetA2-treated ovarian cancer cells; assay type: cell-based, human
Protocol: Microarray analysis was conducted to determine specific disease causing genes which were expressed at higher (>1 fold) or lower (<1 fold) levels than normal in ovarian cancer cells treated with SHetA2 (see Table 6).

Thrombospondin 4 (TSP4) = assay: Real time rt-PCR and Western blot validation, TSP-4; assay type: cell-based; conditions: 1 μM (rt-PCR, OVCAR-3) and 10 μM (Western blot, A2780)
Protocol: FIG. 13. Real Time rt-PCR validation of SHetA2 inhibition of TP and TSP-1 mRNA Expression. OVCAR-3 cultures were treated with 1 μM SHetA2 for the indicated period of time prior to harvesting the cells and isolating RNA. cDNA was prepared and used in real time rt-PCR reactions. Real time rt-PCR was performed on CDNA from cultures various treatment times.
FIG. 14. Western blot validation of SHetA2 inhibition of TP and TSP4 protein expression. A2780 ovarian cancer cells were treated with 10 μM SHetA2 for the indicated amounts of time. Equal amounts of whole cell protein extracts were evaluated by Western blot.

[1] = system: SiHa human cervical cell line; assay: In vitro cytotoxicity (SRB growth inhibition) assay, SiHa; assay type: cell-based; parameters: dose or concentration left out as unconfirmed; conditions: 72 h
Protocol: The SHetA2, SHetA3, SHetA4, SHet50 and 9-cis-RA compounds were evaluated in 4 cervical carcinoma cell lines. The SiHa, CC-1 and C33a human cervical cell lines were maintained in Minimal Essential Media (MEM) containing Earle's salts and L-glutamine supplemented with nonessential amino acids, 1% sodium pyruvate, 10% fetal bovine serum (FBS) and antibiotic/antimycotic. The HT-3 cervical carcinoma cell line was cultured in McCoy's 5a medium supplemented with 10% FBS and antibiotic/antimycotic. Cells were inoculated into 96 well microtiter plates at densities of 1000 cells/well and incubated for 24 h prior to addition of drugs. Drugs were dissolved in dimethyl sulfoxide (DMSO) and diluted in complete medium, prior to addition to triplicate culture wells to achieve final concentrations of […]. Following drug addition, the plates were incubated for 72 h. The assay was terminated by the addition of cold TCA and the cells were stained with 0.4% sulforhodamine B (SRB) in 1% acetic acid. Bound stain was subsequently solubilized with 10 mM trizma base, and the absorbance was read on an automated plate reader at a wavelength of 560 nm. Growth inhibition was determined by dividing the average Optical Density (OD) of the triplicated treated cultures by the average OD of the triplicate control cultures treated with DMSO solvent only. This ratio was converted into a percentage by multiplying by 100. The potency (concentration required to induce half of the maximal activity—GI50) were derived from dose-response graphs generated with results from 3 to 5 individual experiments using GraphPad Software.

[2] = system: dorsal skin of female Skh hairless mice; assay: Topical irritancy; assay type: in vivo; conditions: mouse, in vivo
Protocol: Female Skh hairless mice, 6-8 weeks old, were treated topically on the dorsal skin for 4 days over a 2-log concentration dose range with various compounds. Retinoic acid receptor-Hets were evaluated in A, while retinoic acid receptor-independent Flex-Hets were evaluated in B. Daily flaking and abrasion scores were combined to calculate a single cutaneous toxicity score for each mouse. Each treatment group consisted of 4 mice, and group averages were used to plot cutaneous toxicity against doses of the compounds.
Topical irritancy was evaluated according to published procedures (29). Briefly, female Skh hairless mice, 6-8 weeks old, were treated topically on the dorsal skin for 4 days over a 2-log concentration dose range with various compounds. Daily flaking and abrasion scores were combined to calculate a single cutaneous toxicity score for each mouse. Each treatment group consists of 4 mice, and group averages are used to plot cutaneous toxicity against dose of the retinoid compound.

## CC1(C)CC(C)(C)c2cc(NC(=S)Nc3ccc([N+](=O)[O-])cc3)ccc2S1 [SHetA2]
Ovarian cancer cells; gene: 3-hydroxyisobutyrate dehydrogenase, mitochondrial precursor, AK025558
  Fold: 0.00 Fold
Ovarian cancer cells; gene: A kinase (PRKA) anchor protein 1, clone MGC:1807, BC000729.1
  Fold: 2.00 Fold
Ovarian cancer cells; gene: A kinase anchor protein S-AKAP84 mRNA, U34074.1
  Fold: 2.14 Fold
Ovarian cancer cells; gene: ADAMTS1, AK023795.1
  Fold: 0.43 Fold
Ovarian cancer cells; gene: ADAMTS5, NM_007038.1
  Fold: 0.23 Fold
Ovarian cancer cells; gene: ASPLTFE3 type 2 fusion protein, ASPLTFE3 type 1 fusion protein mRNA, AY034077.1
  Fold: 0.46 Fold
Ovarian cancer cells; gene: ATP-binding cassette, sub-family B (MDRTAP), member 6 (ABCB6), NM_005689.1
  Fold: 0.46 Fold
Ovarian cancer cells; gene: ATP-binding cassette, sub-family D (ALD), member 2 (ABCD2), NM_005164.1
  Fold: 2.71 Fold
Ovarian cancer cells; gene: Amyotrophic lateral sclerosis 2 (juvenile) chromosome region, candidate 3 (ALS2CR3), NM_015049.1
  Fold: 0.41 Fold
Ovarian cancer cells; gene: Angiopoietin-like 2 (ANGPTL2), NM_012098.1
  Fold: 2.16 Fold
Ovarian cancer cells; gene: B-cell CLLlymphoma 3 (BCL3), AI829875
  Fold: 2.58 Fold
Ovarian cancer cells; gene: B-cell CLLlymphoma 3 (BCL3), NM_005178.1
  Fold: 2.05 Fold
Ovarian cancer cells; gene: BAGE2 antigen (BAGE2), AF218570.1
  Fold: 0.34 Fold
Ovarian cancer cells; gene: BAM in multiple myeloma, AF455755.1
  Fold: 3.05 Fold
Ovarian cancer cells; gene: Butyrophilin (BTF3), Cluster Incl. U90548
  Fold: 2.15 Fold
Ovarian cancer cells; gene: Butyrophilin, subfamily 3, member A2 (BTN3A2), AI991252
  Fold: 2.31 Fold
Ovarian cancer cells; gene: Butyrophilin, subfamily 3, member A3 (BTN3A3), NM_006994.2
  Fold: 2.04 Fold
Ovarian cancer cells; gene: Cervical cancer suppressor gene-4 protein (HCCS-4), AF465843.1
  Fold: 2.06 Fold
Ovarian cancer cells; gene: Chromosome 5 open reading frame 4 (C5ORF4), NM_016348.1
  Fold: 2.76 Fold
Ovarian cancer cells; gene: Deleted in lymphocytic leukemia, 2/DEF = Homo sapiens BCMS-upstream neighbor (BCMSUN), AF264787.1
  Fold: 0.33 Fold
Ovarian cancer cells; gene: Deleted in lymphocytic leukemia, BCMS-upstream neighbor (BCMSUN) (DLEU2), AF264787.1
  Fold: 0.40 Fold
Ovarian cancer cells; gene: Dysferlin, limb girdle muscular dystrophy 2B (DYSF), NM_003494.1
  Fold: 2.16 Fold
Ovarian cancer cells; gene: Dystrophin, dystrophin Dp40 isoform (DMD), NM_004019.1
  Fold: 2.76 Fold
Ovarian cancer cells; gene: EHT protein, AF068266.1
  Fold: 2.80 Fold
Ovarian cancer cells; gene: ESTs, Moderately similar to S72399 ras-homolog GTPase rab28 isoform S, AI080106
  Fold: 7.75 Fold
Ovarian cancer cells; gene: ESTs, Weakly similar to DRPL_Human Atrophin-1 (DRPL) in Huntington's disease (HD) and DRPLA, AI358954
  Fold: 2.52 Fold
Ovarian cancer cells; gene: ESTs, Weakly similar to DRPL_Human Atrophin-1 (DRPL) in dentatorubral-pallidoluysian atrophy, AI358954
  Fold: 2.52 Fold
Ovarian cancer cells; gene: Endothelial cell growth factor 1 (platelet-derived)/Thymidine phosphorylase, NM_001953
  Fold: 0.42 Fold
Ovarian cancer cells; gene: Enhancer of zeste (Drosophila) homolog 2 (EZH2) (USP14), NM_004456.1
  Fold: 0.47 Fold
Ovarian cancer cells; gene: FLJ23538 fis, highly similar to BETA2 Human MEN1 region clone epsilonbeta (BETA2), AI042152
  Fold: 0.31 Fold
Ovarian cancer cells; gene: FYN oncogene related to SRC, FGR and YES (FYN), N20923
  Fold: 0.13 Fold
Ovarian cancer cells; gene: FYN oncogene related to SRC, FGR and YES, c-syn protooncogene, M14333.1
  Fold: 0.44 Fold
Ovarian cancer cells; gene: Facioscapulohumeral muscular dystrophy (FSHD) gene region, D4Z4 tandem repeat unit, D38024
  Fold: 2.43 Fold
Ovarian cancer cells; gene: Familial Mediterranean fever locus region, AF098968.1
  Fold: 0.30 Fold
Ovarian cancer cells; gene: Fibroblast growth factor 2 (basic)(FGF2), NM_002006.1
  Fold: 0.35 Fold
Ovarian cancer cells; gene: Fibroblast growth factor 18 (FGF18), NM_003862.1
  Fold: 2.75 Fold
Ovarian cancer cells; gene: Galactosamine (N-acetyl)-6-sulfate sulfatase, NM_000512
  Fold: 0.52 Fold
Ovarian cancer cells; gene: Glypican-6 (GPC6), AF111178.1
  Fold: 2.07 Fold
Ovarian cancer cells; gene: Hemochromatosis splice variant 495-2314del, AF144243.1
  Fold: 3.01 Fold
Ovarian cancer cells; gene: IMAGE:3050107 mRNA, TBC1 domain family, BC001525
  Fold: 0.67 Fold
Ovarian cancer cells; gene: Keratocan (KERA), NM_007035.2
  Fold: 0.50 Fold
Ovarian cancer cells; gene: Lipoma cell line Li-538SV40 ectopic sequence from HMGI-C fusion mRNA (LI), AI990940
  Fold: 0.47 Fold
Ovarian cancer cells; gene: METH1 protein (METH1), AF060152.1
  Fold: 0.39 Fold
Ovarian cancer cells; gene: Myeloidlymphoid leukemia 2 (MLL2), AF105279.1
  Fold: 0.31 Fold
Ovarian cancer cells; gene: Myeloidlymphoid or mixed-lineage leukemia, translocated to, 4 (HGC6.3), AB016902.2
  Fold: 5.07 Fold
Ovarian cancer cells; gene: N-cym protein, NM_006316
  Fold: 2.38 Fold
Ovarian cancer cells; gene: NICE-5 protein, AW779859
  Fold: 0.48 Fold
Ovarian cancer cells; gene: Nasopharyngeal carcinoma susceptibility protein (LZ16), NM_013275.1
  Fold: 0.41 Fold
Ovarian cancer cells; gene: Nephropontin, M83248.1
  Fold: 2.34 Fold
Ovarian cancer cells; gene: Neuroblastoma, suppression of tumorigenicity 1 (NBL1), NM_005380.1
  Fold: 3.07 Fold
Ovarian cancer cells; gene: Niban protein (NIBAN), NM_022083.1
  Fold: 0.21 Fold
Ovarian cancer cells; gene: Novel MAFF LIKE protein, Cluster Incl. AL021977
  Fold: 0.47 Fold
Ovarian cancer cells; gene: PNAS-128 in leukemia, AF277186.1
  Fold: 0.36 Fold
Ovarian cancer cells; gene: Peroxisomal biogenesis factor 3 (PEX3), NM_003630.1
  Fold: 0.43 Fold
Ovarian cancer cells; gene: Peroxisomal biogenesis factor 14 (PEX14), NM_004565.1
  Fold: 2.06 Fold
Ovarian cancer cells; gene: Promyelocytic leukemia (PML), NM_002675.1
  Fold: 2.76 Fold
Ovarian cancer cells; gene: Prostate cancer associated protein 5 (PCANAP5), AI299378
  Fold: 0.23 Fold
Ovarian cancer cells; gene: Prothymosin alpha (PTMA), AF257099
  Fold: 2.60 Fold
Ovarian cancer cells; gene: Putative c-Myc-responsive (RCL), AA523444
  Fold: 0.41 Fold
Ovarian cancer cells; gene: RASSF3 isoform A, putative tumor suppressor, AY062002.1
  Fold: 2.88 Fold
Ovarian cancer cells; gene: RNA binding motif protein 5, putative tumor suppressor (LUCA15), U23946.1
  Fold: 0.43 Fold
Ovarian cancer cells; gene: Regulatory factor X-associated protein (RFXAP), NM_000538.1
  Fold: 0.41 Fold
Ovarian cancer cells; gene: Retinitis pigmentosa GTPase regulator (RPGR), NM_000328.1
  Fold: 0.47 Fold
Ovarian cancer cells; gene: Rhabdoid tumor deletion region protein 1 (RTDR1), NM_014433.1
  Fold: 2.20 Fold
Ovarian cancer cells; gene: SNRPN upstream reading frame (SNURF), BF114870
  Fold: 0.39 Fold
Ovarian cancer cells; gene: Sarcoglycan, gamma (35 kD dystrophin-associated glycoprotein), NM_000231.1
  Fold: 0.04 Fold
Ovarian cancer cells; gene: Similar to vitelliform macular dystrophy (Best disease, bestrophin), BC041664.1
  Fold: 0.26 Fold
Ovarian cancer cells; gene: Smcx homolog, X chromosome (mouse), NM_004187
  Fold: 0.61 Fold
Ovarian cancer cells; gene: Sulfite oxidase (SUOX), NM_000456.1
  Fold: 2.11 Fold
Ovarian cancer cells; gene: Thrombospondin 1 (THBS1), BE999967
  Fold: 0.42 Fold
Ovarian cancer cells; gene: Thrombospondin 4, NM_003248
  Fold: 0.58 Fold
Ovarian cancer cells; gene: Thromospondin 4 (THBS4), NM_03248.1
  Fold: 2.58 Fold
Ovarian cancer cells; gene: Transglutaminase 4 (prostate), NM_003241
  Fold: 0.24 Fold
Ovarian cancer cells; gene: Translocase of inner mitochondrial membrane 44 (yeast) homolog (TIM44), NM_006351.1
  Fold: 0.50 Fold
Ovarian cancer cells; gene: Trichorhinophalangeal syndrome I gene (TRPS1), NM_014112.1
  Fold: 0.36 Fold
Ovarian cancer cells; gene: UDP-galactose-4-epimerase, NM_000403
  Fold: 0.66 Fold
Ovarian cancer cells; gene: Unknown protein mRNA within the p53 intron 1, U58658.1
  Fold: 0.45 Fold
Ovarian cancer cells; gene: Vascular endothelial growth factor (VEGF), AF022375.1
  Fold: 0.47 Fold
Ovarian cancer cells; gene: Vitelliform macular dystrophy (Best disease, bestrophin) (VMD2), NM_004183.1
  Fold: 0.28 Fold
Ovarian cancer cells; gene: aarF domain containing kinase 4, BC013114
  Fold: 2.30 Fold
Ovarian cancer cells; gene: v-Myc avian myelocytomatosis viral related oncogene, neuroblastoma derived (MYCN), BC002712.1
  Fold: 3.99 Fold
Thrombospondin 4 (TSP4)
  expression of TSP-4 at the RNA and protein levels: inhibit expression
[1]
  Efficacy: percent growth inhibition relative to the untreated control: 68%
[2]
  topical irritancy (cutaneous toxicity score): did not induce topical irritancy
